Here are results for 17 molecules from US9924717B2, “Molecules having pesticidal utility, and intermediates, compositions, and processes, related thereto” (Dow AgroSciences LLC, priority 2016, dated 2018).

SMILES strings stand for the structures. Like-named read-outs stand apart in the source and are kept apart here.

For experiment [1], the system named is Cabbage Looper (Trichoplusia ni, TRIPNI) (CL). Kind of experiment: Bioassays on Cabbage Looper (CL), 128-well diet tray assay. It counts as in vivo. Conditions: for mortality at 5 µg/cm2: 168 h, diet tray, second instar larvae, five to seven days, read-out: Percent control (or mortality) CL; for pest or weed control at 50 µg/cm2: Table ABC rating, Cabbage Looper. How it is done: (§1) Example A: Bioassays on Beet Armyworm (Spodoptera exigua, LAPHEG) (“BAW”), Corn Earworm (Helicoverpa zea, Helize) (“CEW”), and Cabbage Looper (Trichoplusia ni, TRIPNI) (“CL”)
(§2) Certain molecules disclosed in this document were tested against BAW, CEW, and CL using procedures described in the following examples. In the reporting of the results, the “BAW, CEW, & CL Rating Table” was used (See Table Section).
Bioassays on CL were conducted using a 128-well diet tray assay. one to five second instar CL larvae were placed in each well (3 mL) of the diet tray that had been previously filled with 1 mL of artificial diet to which 50 μg/cm^2 of the test molecule (dissolved in 50 μL of 90:10 acetone-water mixture) had been applied (to each of eight wells) and then allowed to dry. Trays were covered with a clear self-adhesive cover and held at 25° C., 14:10 light-dark for five to seven days. Percent mortality was recorded for the larvae in each well; activity in the eight wells was then averaged. The results are indicated in the table entitled “Table ABC: Biological Results” (See Table Section).
(§3) Bioassays on BAW and CL were conducted according to the procedures outlined in Example A: Bioassays on Beet Armyworm (“BAW”) and Cabbage Looper (“CL”) using the indicated concentrations.

Experiment [2] deals with Beet Armyworm (Spodoptera exigua, LAPHEG) (BAW). Kind of experiment: Bioassays on Beet Armyworm (BAW), 128-well diet tray assay. It is filed as in vivo. Conditions: for mortality at 5 µg/cm2: 168 h, diet tray, second instar larvae, five to seven days, read-out: Percent control (or mortality) BAW; for pest or weed control at 50 µg/cm2: Table ABC rating, Beet Armyworm. How it is done:
as §1, §2
Bioassays on BAW were conducted using a 128-well diet tray assay. one to five second instar BAW larvae were placed in each well (3 mL) of the diet tray that had been previously filled with 1 mL of artificial diet to which 50 μg/cm^2 of the test molecule (dissolved in 50 μL of 90:10 acetone-water mixture) had been applied (to each of eight wells) and then allowed to dry. Trays were covered with a clear self-adhesive cover and held at 25° C., 14:10 light-dark for five to seven days. Percent mortality was recorded for the larvae in each well; activity in the eight wells was then averaged. The results are indicated in the table entitled “Table ABC: Biological Results” (See Table Section).
as §3

[3] abbreviates: 5 μg/cm^2 (first BAW/CL column pair).
Where [4] appears, read: 5 μg/cm^2 as printed (second BAW/CL column pair).

As for `O=C(NCC(F)(F)F)c1ccc(/C(F)=C/C(c2cc(Cl)c(Cl)c(Cl)c2)C(F)(F)F)cc1C(F)(F)F` (centres unmarked) [F1, (Z)-4-(1,4,4,4-tetrafluoro-3-(3,4,5-trichlorophenyl)but-1-en-1-yl)-N-(2,2,2-trifluoroethyl)-2-(trifluoromethyl)benzamide], the mortality at 5 µg/cm2 in experiment [1] (setting [3]), in experiment [1] (setting [4]), in experiment [2] (setting [3]) and in experiment [2] (setting [4]) was 100% in each case. The pest or weed control at 50 µg/cm2 in experiment [1] and in experiment [2] was 50 to 100% each time.
As to `CC(NC(=O)c1ccc(/C(F)=C/C(c2cc(Cl)c(Cl)c(Cl)c2)C(F)(F)F)cc1C(F)(F)F)C(F)(F)F` (centres unmarked) [F2, (Z)-4-(1,4,4,4-Tetrafluoro-3-(3,4,5-trichlorophenyl)but-1-en-1-yl)-2-(trifluoromethyl)-N-(1,1,1-trifluoropropan-2-yl)benzamide], the pest or weed control at 50 µg/cm2 in experiment [1] and in experiment [2] was 50 to 100% each time.
As to `O=C(NC1CCC(F)(F)CC1)c1ccc(/C(F)=C/C(c2cc(Cl)c(Cl)c(Cl)c2)C(F)(F)F)cc1C(F)(F)F` (centres unmarked) [F4, (Z)—N-(4,4-Difluorocyclohexyl)-4-(1,4,4,4-tetrafluoro-3-(3,4,5-trichlorophenyl)but-1-en-1-yl)-2-(trifluoromethyl)benzamide], the pest or weed control at 50 µg/cm2 in experiment [1] and in experiment [2] was 50 to 100% each time.
With `O=C(c1ccc(/C(F)=C/C(c2cc(Cl)c(Cl)c(Cl)c2)C(F)(F)F)cc1Br)N1CCCC1` (centres unmarked) [F5, (Z)-(2-Bromo-4-(1,4,4,4-tetrafluoro-3-(3,4,5-trichlorophenyl)but-1-en-1-yl)phenyl)(pyrrolidin-1-yl)methanone], the pest or weed control at 50 µg/cm2 in experiment [1] and in experiment [2] was 50 to 100% each time.
On to `O=C(c1ccc(/C(F)=C/C(c2cc(Cl)c(Cl)c(Cl)c2)C(F)(F)F)cc1C(F)(F)F)N1CCCC1` (centres unmarked) [F6, (Z)-Pyrrolidin-1-yl(4-(1,4,4,4-tetrafluoro-3-(3,4,5-trichlorophenyl)but-1-en-1-yl)-2-(trifluoromethyl)phenyl) methanone], for which the pest or weed control at 50 µg/cm2 in experiment [1] and in experiment [2] was 50 to 100% each time.
`Cc1ccc([C@@H](C)NC(=O)c2ccc(/C(F)=C/C(c3cc(Cl)c(Cl)c(Cl)c3)C(F)(F)F)cc2C(F)(F)F)cc1` (stereo partly drawn) [F8, 4-((Z)-1,4,4,4-Tetrafluoro-3-(3,4,5-trichlorophenyl)but-1-en-1-yl)-N—((R)-1-(p-tolyl)ethyl)-2-(trifluoromethyl)benzamide]: the pest or weed control at 50 µg/cm2 in experiment [1] and in experiment [2] was 50 to 100% each time.
Turning to `O=C(NC1CCC(F)(F)CC1)c1ccc(/C(F)=C/C(c2cc(Cl)c(Cl)c(Cl)c2)C(F)(F)F)cc1Cl` (centres unmarked) [F9, (Z)-2-Chloro-N-(4,4-difluorocyclohexyl)-4-(1,4,4,4-tetrafluoro-3-(3,4,5-trichlorophenyl)but-1-en-1-yl)benzamide], the pest or weed control at 50 µg/cm2 in experiment [1] and in experiment [2] was 50 to 100% throughout.
With `O=C(NC1CCC(F)(F)CC1)c1ccc(/C(F)=C/C(c2cc(Cl)c(Cl)c(Cl)c2)C(F)(F)F)cc1Br` (centres unmarked) [F10, (Z)-2-Bromo-N-(4,4-difluorocyclohexyl)-4-(1,4,4,4-tetrafluoro-3-(3,4,5-trichlorophenyl)but-1-en-1-yl)benzamide], the pest or weed control at 50 µg/cm2 in experiment [1] and in experiment [2] was 50 to 100% throughout.
For `O=C(NC1CCCC(F)(F)C1)c1ccc(/C(F)=C/C(c2cc(Cl)c(Cl)c(Cl)c2)C(F)(F)F)cc1C(F)(F)F` (centres unmarked) [F13, (Z)—N-(3,3-Difluorocyclohexyl)-4-(1,4,4,4-tetrafluoro-3-(3,4,5-trichlorophenyl)but-1-en-1-yl)-2-(trifluoromethyl)benzamide], the pest or weed control at 50 µg/cm2 in experiment [1] and in experiment [2] was 50 to 100% throughout.
As to `COc1cccc([C@@H](C)NC(=O)c2ccc(/C(F)=C/C(c3cc(Cl)c(Cl)c(Cl)c3)C(F)(F)F)cc2C(F)(F)F)c1` (stereo partly drawn) [F14, N—((R)-1-(3-Methoxyphenyl)ethyl)-4-((Z)-1,4,4,4-tetrafluoro-3-(3,4,5-trichlorophenyl)but-1-en-1-yl)-2-(trifluoromethyl)benzamide], the pest or weed control at 50 µg/cm2 in experiment [1] and in experiment [2] was 50 to 100% each time.
With `NC(=O)c1ccc(/C(F)=C/C(c2cc(Cl)c(Cl)c(Cl)c2)C(F)(F)F)cc1C(F)(F)F` (centres unmarked) [F17, (Z)-4-(1,4,4,4-Tetrafluoro-3-(3,4,5-trichlorophenyl)but-1-en-1-yl)-2-(trifluoromethyl)benzamide], the pest or weed control at 50 µg/cm2 in experiment [1] and in experiment [2] was 50 to 100% in each case.
As for `CN(C)/C=N/C(=O)c1ccc(/C(F)=C/C(c2cc(Cl)c(Cl)c(Cl)c2)C(F)(F)F)cc1C(F)(F)F` (centres unmarked) [F18, (E)-N-((dimethylamino)methylene)-4-((Z)-1,4,4,4-tetrafluoro-3-(3,4,5-trichlorophenyl)but-1-en-1-yl)-2-(trifluoromethyl)benzamide], the pest or weed control at 50 µg/cm2 in experiment [1] and in experiment [2] was 50 to 100% in each case.
For `O=CNC(=O)c1ccc(/C(F)=C/C(c2cc(Cl)c(Cl)c(Cl)c2)C(F)(F)F)cc1C(F)(F)F` (centres unmarked) [F20, (Z)—N-Formyl-4-(1,4,4,4-tetrafluoro-3-(3,4,5-trichlorophenyl)but-1-en-1-yl)-2-(trifluoromethyl)benzamide], the pest or weed control at 50 µg/cm2 in experiment [1] and in experiment [2] was 50 to 100% in each case.
As for `O=C(NC1CC1)c1ccc(/C(F)=C/C(c2ccc(Cl)c(Cl)c2)C(F)(F)F)cc1C(F)(F)F` (centres unmarked) [F35, (Z)—N-Cyclopropyl-4-(3-(3,4-dichlorophenyl)-1,4,4,4-tetrafluorobut-1-en-1-yl)-2-(trifluoromethyl)benzamide], the pest or weed control at 50 µg/cm2 in experiment [1] and in experiment [2] was 50 to 100% in each case.
With `CC(NC(=O)c1ccc(/C(F)=C/C(c2cc(Br)c(Cl)c(Br)c2)C(F)(F)F)cc1C(F)(F)F)C(F)(F)F` (centres unmarked) [F36, 4-((Z)-3-(3,5-Dibromo-4-chlorophenyl)-1,4,4,4-tetrafluorobut-1-en-1-yl)-2-(trifluoromethyl)-N-(1,1,1-trifluoropropan-2-yl)benzamide], the pest or weed control at 50 µg/cm2 in experiment [1] and in experiment [2] was 50 to 100% throughout.
Turning to `Cc1cc(C(/C=C(\F)c2ccc(C(=O)NC3CC3)c(C(F)(F)F)c2)C(F)(F)F)cc(C)c1Cl` (centres unmarked) [F37, (Z)-4-(3-(4-Chloro-3,5-dimethylphenyl)-1,4,4,4-tetrafluorobut-1-en-1-yl)-N-cyclopropyl-2-(trifluoromethyl)benzamide], the pest or weed control at 50 µg/cm2 in experiment [1] and in experiment [2] was 50 to 100% throughout.
For `CC(NC(=O)c1ccc(/C(F)=C/C(c2cc(Cl)c(Br)c(Cl)c2)C(F)(F)F)cc1C(F)(F)F)C(F)(F)F` (centres unmarked) [F38, 4-((Z)-3-(4-Bromo-3,5-dichlorophenyl)-1,4,4,4-tetrafluorobut-1-en-1-yl)-2-(trifluoromethyl)-N-(1,1,1-trifluoropropan-2-yl)benzamide], the pest or weed control at 50 µg/cm2 in experiment [1] and in experiment [2] was 50 to 100% each time.
